From paper PMC9227586, “UHPLC-MS Metabolomic Fingerprinting, Antioxidant, and Enzyme Inhibition Activities of Himantormia lugubris from Antarctica” (Metabolites, 2022)
Read-outs that look alike come from different tables or passages of the source. Marks after values point to notes of the source that are not given here.

Columns and labels:
tyrosinase = conditions: cited from earlier work
[1] = Ferric-reducing antioxidant power assay (FRAP); conditions: absorbance at 593 nm after 5 min
Experimental: The FRAP test was performed as described previously. A standard curve of the antioxidant Trolox was plotted, then the measurement was performed with 290 µL of extract and its absorbance was measured at 593 nm after 5 min. The results were expressed in mg of Trolox equivalent per g of dry lichen. The experiments were performed in triplicate and the values are expressed as the mean ± SD.

DPPH scavenging activity = conditions: bleaching of DPPH at 515 nm after 30 min
Experimental: The potential bleaching of the radical DPPH, using a Synergy HTX microplate reader, was determined by mixing 50 µL of extract or standard with 150 µL of DPPH solution; the determinations were made in triplicate by monitoring the bleaching of DPPH at 515 nm after 30 min of reaction. The results are expressed as IC50 in µg of standard or extract per mL. The data are reported as the mean ± SD.

[2] = Oxygen radical absorbance capacity (ORAC) assay
Experimental: The ORAC assay was performed as previously described. Quantification was performed using a standard curve of the antioxidant Trolox, then the measurement was performed using a solution of the Trolox, blank, and 40 µL of extract in different wells of the microplate reader. The results were obtained by constructing the equations (Trolox/samples vs. fluorescence decay curves) and expressed in μmol Trolox equivalents per grams of dry lichen. The tests were performed in triplicate and the results are reported as the mean ± SD.

[3] = molecular target: T1, acetylcholinesterase (AChE, EC 3.1.1.7) (Homo sapiens, UniProt P22303); assay: biochemical; conditions: 37 °C
T1 construct: purchased Sigma (St. Louis, MO, USA)
T1 sequence (P22303 32-614, species assumed): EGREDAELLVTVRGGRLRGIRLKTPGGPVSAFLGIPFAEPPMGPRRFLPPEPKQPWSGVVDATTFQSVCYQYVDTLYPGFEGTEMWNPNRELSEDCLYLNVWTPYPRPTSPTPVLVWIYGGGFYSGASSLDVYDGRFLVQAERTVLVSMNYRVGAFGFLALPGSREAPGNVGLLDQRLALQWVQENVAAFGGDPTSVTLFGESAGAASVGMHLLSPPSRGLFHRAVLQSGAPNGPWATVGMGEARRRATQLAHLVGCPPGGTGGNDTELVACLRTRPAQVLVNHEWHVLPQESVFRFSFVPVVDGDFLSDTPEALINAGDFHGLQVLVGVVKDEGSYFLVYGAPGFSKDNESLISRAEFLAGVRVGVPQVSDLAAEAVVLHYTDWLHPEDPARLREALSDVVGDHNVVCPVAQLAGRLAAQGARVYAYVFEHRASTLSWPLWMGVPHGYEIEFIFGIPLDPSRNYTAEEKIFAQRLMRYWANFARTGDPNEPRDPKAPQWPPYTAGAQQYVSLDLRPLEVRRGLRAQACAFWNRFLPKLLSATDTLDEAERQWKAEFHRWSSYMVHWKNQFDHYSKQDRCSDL
Experimental: (§1) Inhibition of AChE activity was determined according to the Ellman method, as previously reported. The samples (2 mg/mL) were prepared by mixing tris-HCl buffer (50 mM, pH 8.0), enzyme solution (AChE or BChE), and 5-dithio-bis (2-nitrobenzoic acid) (DTNB) at pH 8.0. The reaction was started by adding acetyl-thiocholine iodide (ATCI) or butyryl-thiocholine chloride (BTCl). The absorbance of the extract was measured at 405 nm for 30 min at 37 °C. Three experiments were performed in triplicate in each test and the values are reported as the mean ± SD. The results were expressed as IC50 (µg/mL, the final concentration of the plate ranged from 0.05 to 25 μg/mL).

[4] = molecular target: T2, butyrylcholinesterase (BChE, EC 3.1.1.8) (Homo sapiens, UniProt P06276); assay: biochemical
T2 construct: purchased Sigma (St. Louis, MO, USA)
T2 sequence (P06276 29-602): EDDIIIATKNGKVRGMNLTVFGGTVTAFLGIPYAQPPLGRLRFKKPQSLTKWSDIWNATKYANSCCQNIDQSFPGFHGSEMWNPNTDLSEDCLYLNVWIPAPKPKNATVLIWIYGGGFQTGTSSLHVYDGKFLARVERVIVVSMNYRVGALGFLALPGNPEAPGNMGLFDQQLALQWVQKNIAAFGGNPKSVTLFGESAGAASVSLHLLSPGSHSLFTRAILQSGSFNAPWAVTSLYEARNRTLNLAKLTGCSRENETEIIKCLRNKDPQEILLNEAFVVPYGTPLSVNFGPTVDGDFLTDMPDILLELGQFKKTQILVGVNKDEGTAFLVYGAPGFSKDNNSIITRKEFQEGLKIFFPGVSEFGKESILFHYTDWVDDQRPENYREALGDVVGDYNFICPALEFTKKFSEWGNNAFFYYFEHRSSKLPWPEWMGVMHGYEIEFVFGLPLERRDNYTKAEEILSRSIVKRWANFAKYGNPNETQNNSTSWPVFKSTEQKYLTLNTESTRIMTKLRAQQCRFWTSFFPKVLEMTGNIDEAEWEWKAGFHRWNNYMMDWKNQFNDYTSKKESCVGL
Experimental: as §1

AChE = conditions: cited from earlier work
BChE = conditions: cited from earlier work
[5] = Ellman method, read-out: AChE IC50 (converted)
[6] = Ellman method, 37 °C, read-out: BChE IC50 (converted)

Row | SMILES | FRAP [1] | DPPH antiradical activity (IC50) (DPPH scavenging activity) [µg/mL] | ORAC [2] [μmol Trolox/g lichen] | IC50 [3, 5] [µM] | IC50 [4, 6] [µM] | further results
1 | Cc1cc(OC(=O)c2c(C)cc(O)cc2O)cc(O)c1C(=O)O [lecanoric acid] | – | – | – | – | – | inhibition of tyrosinase activity (tyrosinase): 82.69%
2 | O=C(O)c1cc(O)c(O)c(O)c1 [Gallic acid, reference compound] | 45.5 ± 0.00 μmol Trolox/g lichen | 2.24 ± 0.04 | – | – | – | –
3 | Cc1cc(O)c(C=O)c(O)c1C(=O)OCc1cc(O)c(C=O)c(O)c1C(=O)O [Barbatolic acid, barbatolic acid] | 28.10 ± 0.0 ^a μmol Trolox/g lichen | 62.55 ± 0.01 | 101.11 ± 0.71 | 44.6 | 61.4 | –
4 | Cc1cc(O)c(C=O)c(O)c1 [Atranol, atranol] | 29.32 ± 0.0 ^a μmol Trolox/g lichen | 21.04 ± 0.02 | 176.28 ± 0.84 | 189 | 239 | –
5 | C[C@@H]1O[C@@H](O[C@@H]2C(=O)c3c(O)cc(O)cc3O[C@@H]2c2ccc(O)c(O)c2)[C@H](O)[C@H](O)[C@H]1O [isoastilbin] | – | – | – | – | – | AChE inhibition (AChE; at 2.2 µM): 51.70%; BChE inhibition (BChE; at 2.2 µM): 50.10%
6 | Cc1cc(O)c(C=O)c2c1C(=O)Oc1c(COC(=O)/C=C/C(=O)O)c(O)c(C(=O)O)c(C)c1O2 [fumarprotocetraric acid] | – | – | – | – | – | inhibition of tyrosinase activity (tyrosinase; at 0.6 mM): 39.8%
7 | CC(=O)c1c(O)c(C)c(O)c2c1OC1=CC(=O)C(C(C)=O)C(=O)C12C (stereo not drawn) [Usnic acid] | 22.4 ± 0.00 μmol Trolox/g lichen | 55.25 ± 0.04 | 122.73 ± 1.0 | – | – | IC50 ([3]; AChE IC50, Ellman method): 6.42 µM; IC50 [4]: 12.7 µM; IC50 (AChE; reported previously): 0.00127 µM; IC50 (BChE; reported previously): 0.0034 µM
8 | Cc1cc(O)cc(O)c1C(=O)O [orsellinic acid, 2,4-dihydroxy-6-methylbenzoic acid] | – | – | – | – | – | inhibition of tyrosinase activity (tyrosinase): 63.35%
9 | Cc1c(O)cc2c(c1O)C(=O)OC2 [5,7-dihydroxy-6-methylphthalide] | 36.91 ± 0.0 μmol Trolox/g lichen | 12.52 ± 0.02 | 373.65 ± 1.05 | 70.5 | 108 | –
10 | CC(=O)C1=C(O)C=C2Oc3c(C(C)=O)c(O)c(C)c(O)c3[C@@]2(C)C1=O [(+) usnic acid] | – | – | – | – | – | tyrosinase inhibition (tyrosinase; at the dose of 250 μg/mL): 9.1%
